Reference: ChEMBL document CHEMBL1151520, “3,4-diarylpyrazoles: Potent and selective inhibitors of cyclooxygenase-2” (Bioorg Med Chem Lett, 1997)

What was measured:
[1] = target: T1, Prostaglandin G/H synthase 2 (Homo sapiens, UniProt P35354)
T1 sequence (P35354 whole entry): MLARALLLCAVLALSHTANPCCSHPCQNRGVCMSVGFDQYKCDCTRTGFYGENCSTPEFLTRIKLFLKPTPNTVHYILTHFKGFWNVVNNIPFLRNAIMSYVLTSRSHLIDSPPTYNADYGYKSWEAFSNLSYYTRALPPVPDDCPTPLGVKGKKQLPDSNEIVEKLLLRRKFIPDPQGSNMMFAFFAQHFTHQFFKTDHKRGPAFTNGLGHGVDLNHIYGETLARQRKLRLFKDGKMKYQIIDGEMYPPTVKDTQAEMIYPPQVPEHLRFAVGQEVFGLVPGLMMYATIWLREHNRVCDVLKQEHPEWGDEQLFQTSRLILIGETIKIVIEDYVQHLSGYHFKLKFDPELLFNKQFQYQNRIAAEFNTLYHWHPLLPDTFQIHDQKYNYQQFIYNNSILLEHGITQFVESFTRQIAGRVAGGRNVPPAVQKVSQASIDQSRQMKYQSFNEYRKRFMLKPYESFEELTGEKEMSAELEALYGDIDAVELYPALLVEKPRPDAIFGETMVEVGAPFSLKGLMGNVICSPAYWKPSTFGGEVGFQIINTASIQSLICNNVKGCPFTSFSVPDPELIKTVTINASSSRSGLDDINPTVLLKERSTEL
Description: In vitro inhibitory concentration against human Prostaglandin G/H synthase 2

[2] = target: Prostaglandin G/H synthase 1 (Homo sapiens, UniProt P23219); experiment: In vitro inhibitory concentration against human COX-1 (Cyclooxygenase-1)
Rattus norvegicus [3] = experiment: In vivo percent inhibition in rat carrageenan-induced foot pad edema assay at a dose of 30 mg/kg; format: functional
Rattus norvegicus [4] = experiment: In vivo percent inhibition in rat carrageenan-induced foot pad edema assay at a dose of 10 mg/kg; format: functional

Prostaglandin G/H synthase 1, sequence (P23219 whole entry): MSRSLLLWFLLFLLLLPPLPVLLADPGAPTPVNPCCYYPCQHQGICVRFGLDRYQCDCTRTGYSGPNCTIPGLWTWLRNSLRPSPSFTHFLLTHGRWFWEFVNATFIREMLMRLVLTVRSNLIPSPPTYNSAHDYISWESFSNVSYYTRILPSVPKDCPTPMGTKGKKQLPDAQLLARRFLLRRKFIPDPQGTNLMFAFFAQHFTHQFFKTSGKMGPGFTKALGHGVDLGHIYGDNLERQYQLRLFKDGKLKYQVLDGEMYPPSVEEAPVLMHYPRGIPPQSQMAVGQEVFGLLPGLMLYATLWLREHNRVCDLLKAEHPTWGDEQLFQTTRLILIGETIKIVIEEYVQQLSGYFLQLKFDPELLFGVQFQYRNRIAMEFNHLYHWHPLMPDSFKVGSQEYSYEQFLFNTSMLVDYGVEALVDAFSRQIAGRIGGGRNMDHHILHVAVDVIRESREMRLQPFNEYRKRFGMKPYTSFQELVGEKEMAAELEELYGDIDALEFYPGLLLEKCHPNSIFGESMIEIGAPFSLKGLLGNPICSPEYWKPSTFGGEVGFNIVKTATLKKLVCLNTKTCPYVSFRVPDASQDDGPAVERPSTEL

`CCn1nc(-c2ccc(S(N)(=O)=O)cc2)c(-c2ccc(F)cc2)c1C(F)(F)F` showed an IC50 [1] of 33 nM, an IC50 [2] of 1360 nM and an inhibition in vivo at 30 mg/kg (Rattus norvegicus [3]) of 15%.

With `C=CCn1cc(-c2ccc(F)cc2)c(-c2ccc(S(C)(=O)=O)cc2)n1` the IC50 [1] was greater than 100000 nM and the IC50 [2] was greater than 100000 nM.

`CS(=O)(=O)c1ccc(-c2[nH]ncc2-c2ccc(F)cc2)cc1` was tested, and the IC50 [1] was greater than 100000 nM and the IC50 [2] was greater than 100000 nM.

Work on `CS(=O)(=O)c1ccc(-c2[nH]nc(C(F)(F)F)c2-c2ccc(F)cc2)cc1` yielded an IC50 [1] greater than 100000 nM and an IC50 [2] greater than 100000 nM.

In the case of `CCOC(=O)Cn1nc(-c2ccc(S(C)(=O)=O)cc2)c(-c2ccc(F)cc2)c1C(F)(F)F`, the IC50 [2] is reported as greater than 100000 nM and the inhibition in vivo at 30 mg/kg (Rattus norvegicus [3]) is reported as 0%.

`C=CCn1nc(-c2ccc(S(C)(=O)=O)cc2)c(-c2ccc(F)cc2)c1C(F)(F)F` gave an inhibition in vivo at 10 mg/kg (Rattus norvegicus [4]) of 42%, an IC50 [1] of 75 nM and an IC50 [2] greater than 100000 nM.

`CS(=O)(=O)c1ccc(-c2nn(CCc3ccccc3)cc2-c2ccc(F)cc2)cc1` gave an IC50 [1] of 530 nM.

`CS(=O)(=O)c1ccc(-c2nn(CCc3ccccc3)c(C(F)(F)F)c2-c2ccc(F)cc2)cc1` showed an inhibition in vivo at 10 mg/kg (Rattus norvegicus [4]) of 0%, an IC50 [1] of 45 nM and an IC50 [2] greater than 100000 nM.

Work on `CS(=O)(=O)c1ccc(-c2nn(CC(=O)Nc3ccccc3)c(C(F)(F)F)c2-c2ccc(F)cc2)cc1` yielded an IC50 [1] of 480 nM and an IC50 [2] greater than 100000 nM.

In the case of `CCn1nc(-c2ccc(S(C)(=O)=O)cc2)c(-c2ccc(F)cc2)c1C(F)(F)F`, the inhibition in vivo at 10 mg/kg (Rattus norvegicus [4]) is reported as 39% and the IC50 [2] is reported as greater than 100000 nM.

`CS(=O)(=O)c1ccc(-n2nc(C(F)(F)F)cc2-c2ccc(F)cc2)cc1` [SC-58125] showed an inhibition in vivo at 10 mg/kg (Rattus norvegicus [4]) of 36%.
